Source: US8178668B2, “2-aminopyridine kinase inhibitors” (OSI Pharmaceuticals, LLC, priority 2008, dated 2012)

What was measured:
RON (human) = RON (human) (Homo sapiens, UniProt Q04912); experiment: RON kinase AlphaScreen assay (Km of ATP); assay type: biochemical; conditions: ATP at Km; at least duplicate experiments
Outline: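 Human RON phosphorylated biotinylated poly(Glu,Tyr) (200 ng/μL) at Km ATP in 50 mM HEPES pH 7.4, 12.5 mM MgCl2, 1% glycerol, 0.334 mM vanadate, 1% DMSO. Reaction ran 30 min at RT after enzyme addition. Product was detected by AlphaScreen with PT66 beads after 1 h.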

MET (human) = MET (human) (Homo sapiens, UniProt P08581); experiment: MET kinase AlphaScreen assay (Km of ATP); assay type: biochemical; conditions: ATP at Km; at least duplicate experiments
Chain of MET (human) (P08581 25-1390): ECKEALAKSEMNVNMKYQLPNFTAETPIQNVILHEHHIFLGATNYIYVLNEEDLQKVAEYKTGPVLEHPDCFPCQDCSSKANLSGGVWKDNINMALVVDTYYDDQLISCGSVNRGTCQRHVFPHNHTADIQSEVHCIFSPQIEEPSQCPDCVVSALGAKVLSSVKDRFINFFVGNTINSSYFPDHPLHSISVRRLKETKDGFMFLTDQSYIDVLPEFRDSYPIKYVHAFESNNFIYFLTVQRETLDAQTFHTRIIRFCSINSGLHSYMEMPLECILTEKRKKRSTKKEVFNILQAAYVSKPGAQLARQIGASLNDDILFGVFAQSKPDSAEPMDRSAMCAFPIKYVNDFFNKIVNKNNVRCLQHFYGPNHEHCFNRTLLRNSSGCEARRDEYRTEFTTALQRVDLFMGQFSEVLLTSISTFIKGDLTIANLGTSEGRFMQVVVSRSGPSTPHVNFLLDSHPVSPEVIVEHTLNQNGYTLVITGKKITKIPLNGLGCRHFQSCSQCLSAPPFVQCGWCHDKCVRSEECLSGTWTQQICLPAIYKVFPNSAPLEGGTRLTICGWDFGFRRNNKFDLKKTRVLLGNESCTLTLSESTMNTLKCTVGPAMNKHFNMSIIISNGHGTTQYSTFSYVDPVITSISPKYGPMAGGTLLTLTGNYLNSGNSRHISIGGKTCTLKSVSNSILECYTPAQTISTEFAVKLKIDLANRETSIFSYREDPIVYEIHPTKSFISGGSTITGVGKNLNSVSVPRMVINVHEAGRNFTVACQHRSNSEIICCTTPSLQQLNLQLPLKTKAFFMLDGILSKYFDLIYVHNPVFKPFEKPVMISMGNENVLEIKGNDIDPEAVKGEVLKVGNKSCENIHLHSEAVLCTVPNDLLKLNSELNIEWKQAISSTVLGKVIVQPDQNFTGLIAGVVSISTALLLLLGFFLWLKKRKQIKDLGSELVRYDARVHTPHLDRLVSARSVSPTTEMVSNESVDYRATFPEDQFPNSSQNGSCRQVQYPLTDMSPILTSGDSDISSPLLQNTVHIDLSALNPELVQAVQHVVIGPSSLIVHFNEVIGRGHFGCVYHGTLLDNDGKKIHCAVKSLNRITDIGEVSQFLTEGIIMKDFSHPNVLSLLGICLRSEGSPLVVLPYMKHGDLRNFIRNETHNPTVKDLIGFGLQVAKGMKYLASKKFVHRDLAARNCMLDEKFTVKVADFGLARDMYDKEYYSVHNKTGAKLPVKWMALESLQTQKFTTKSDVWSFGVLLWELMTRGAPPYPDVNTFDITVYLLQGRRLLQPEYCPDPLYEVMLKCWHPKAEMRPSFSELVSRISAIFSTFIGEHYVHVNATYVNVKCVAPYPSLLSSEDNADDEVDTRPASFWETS
Outline: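 Biotinylated poly(Glu,Tyr) (200 ng/μL) phosphorylated by MET with ATP at an enzyme-optimized level, in 50 mM HEPES pH 7.4 with Mg2+/Mn2+ and vanadate, 1% DMSO. Reaction runs 60 min at RT. PT66 AlphaScreen donor/acceptor beads are added and signal is read after 1 h.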

Chain of RON (human) (Q04912 25-1400): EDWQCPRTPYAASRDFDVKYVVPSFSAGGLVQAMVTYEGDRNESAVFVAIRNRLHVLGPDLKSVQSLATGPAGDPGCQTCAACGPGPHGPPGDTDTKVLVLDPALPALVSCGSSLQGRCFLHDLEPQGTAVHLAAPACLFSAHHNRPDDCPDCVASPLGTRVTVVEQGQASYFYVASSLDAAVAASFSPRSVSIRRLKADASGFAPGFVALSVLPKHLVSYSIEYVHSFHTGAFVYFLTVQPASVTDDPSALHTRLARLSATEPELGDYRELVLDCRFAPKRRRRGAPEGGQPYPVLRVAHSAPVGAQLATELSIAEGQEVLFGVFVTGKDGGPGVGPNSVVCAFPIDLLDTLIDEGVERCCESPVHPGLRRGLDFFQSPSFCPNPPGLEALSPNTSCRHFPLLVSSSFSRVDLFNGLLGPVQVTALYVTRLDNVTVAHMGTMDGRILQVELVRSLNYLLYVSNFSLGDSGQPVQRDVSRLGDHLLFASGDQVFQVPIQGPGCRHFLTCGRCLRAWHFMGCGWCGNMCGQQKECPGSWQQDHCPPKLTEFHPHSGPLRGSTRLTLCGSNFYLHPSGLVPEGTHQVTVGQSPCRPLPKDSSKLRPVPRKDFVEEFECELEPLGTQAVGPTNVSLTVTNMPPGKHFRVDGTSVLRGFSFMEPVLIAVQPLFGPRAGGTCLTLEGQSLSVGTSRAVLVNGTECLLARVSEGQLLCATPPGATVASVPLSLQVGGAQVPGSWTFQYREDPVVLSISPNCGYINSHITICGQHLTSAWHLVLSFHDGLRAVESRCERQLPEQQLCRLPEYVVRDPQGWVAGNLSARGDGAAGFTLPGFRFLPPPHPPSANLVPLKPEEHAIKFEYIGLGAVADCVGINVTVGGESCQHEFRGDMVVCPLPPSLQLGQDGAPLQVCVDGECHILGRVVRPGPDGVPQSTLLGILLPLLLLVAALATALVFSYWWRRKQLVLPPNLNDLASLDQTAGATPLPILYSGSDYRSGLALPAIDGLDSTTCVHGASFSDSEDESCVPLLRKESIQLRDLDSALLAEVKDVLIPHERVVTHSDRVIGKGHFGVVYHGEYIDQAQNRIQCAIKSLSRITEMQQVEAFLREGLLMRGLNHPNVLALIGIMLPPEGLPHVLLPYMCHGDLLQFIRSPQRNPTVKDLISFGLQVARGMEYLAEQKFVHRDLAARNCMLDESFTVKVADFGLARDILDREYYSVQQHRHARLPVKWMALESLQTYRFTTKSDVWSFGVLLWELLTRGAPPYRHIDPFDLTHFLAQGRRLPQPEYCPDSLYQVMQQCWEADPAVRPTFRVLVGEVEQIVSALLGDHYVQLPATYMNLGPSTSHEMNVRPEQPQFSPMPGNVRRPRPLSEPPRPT

Compound	IC50 (RON (human))	IC50 (MET (human))
CN(C)C(=O)c1cccc(-c2cnc(N)c(-c3nc4ccccc4s3)c2)c1 [Example 186, 3-(6-Amino-5-benzothiazol-2-ylpyridin-3-yl)-N,N-dimethylbenzamide]	> 20 µM	1 to 20 µM
NC(=O)c1ccc(-c2cnc(N)c(-c3nc4ccccc4s3)c2)cc1 [Example 190, 4-(6-Amino-5-benzothiazol-2-ylpyridin-3-yl)benzamide]	> 20 µM	1 to 20 µM
CCN(CC)C(=O)c1ccc(-c2cnc(N)c(-c3nc4ccccc4s3)c2)cc1 [Example 191, 4-(6-Amino-5-benzothiazol-2-ylpyridin-3-yl)-N,N-diethylbenzamide]	> 20 µM	> 20 µM
CNC(=O)c1cccc(-c2cnc(N)c(-c3nc4ccccc4s3)c2)c1 [Example 194, 3-(6-Amino-5-benzothiazol-2-ylpyridin-3-yl)-N-methylbenzamide]	> 20 µM	> 20 µM
Nc1ncc(-c2ccc(C(=O)N3CCCCC3)cc2)cc1-c1nc2ccccc2s1 [Example 195, [4-(6-Amino-5-benzothiazol-2-ylpyridin-3-yl)phenyl]piperidin-1-ylmethanone]	> 20 µM	> 20 µM
Nc1ncc(-c2ccc(C(=O)NC3CC3)cc2)cc1-c1nc2ccccc2s1 [Example 198, 4-(6-Amino-5-benzothiazol-2-ylpyridin-3-yl)-N-cyclopropylbenzamide]	> 20 µM	1 to 20 µM
Nc1ncc(-c2cccc(C(=O)N3CCCC3)c2)cc1-c1nc2ccccc2s1 [Example 204, [3-(6-Amino-5-benzothiazol-2-ylpyridin-3-yl)phenyl]pyrrolidin-1-ylmethanone]	> 20 µM	1 to 20 µM
Nc1ncc(-c2cccc(C(=O)N3CCCCC3)c2)cc1-c1nc2ccccc2s1 [Example 206, [3-(6-Amino-5-benzothiazol-2-ylpyridin-3-yl)phenyl]piperidin-1-ylmethanone]	> 20 µM	1 to 20 µM
CC(=O)N1CCN(C(=O)c2cccc(-c3cnc(N)c(-c4nc5ccccc5s4)c3)c2)CC1 [Example 212, 1-{4-[3-(6-Amino-5-benzothiazol-2-ylpyridin-3-yl)benzoyl]piperazin-1-yl}ethanone]	> 20 µM	1 to 20 µM
Nc1ncc(-c2cccc(C(=O)N3CCCC(O)C3)c2)cc1-c1nc2ccccc2s1 (stereo not drawn) [Example 213, [3-(6-Amino-5-benzothiazol-2-ylpyridin-3-yl)phenyl]-(3-hydroxypiperidin-1-yl)methanone]	1 to 20 µM	1 to 20 µM
C[C@@H]1CN(C(=O)c2cccc(-c3cnc(N)c(-c4nc5ccccc5s4)c3)c2)C[C@H](C)O1 [Example 214, [3-(6-Amino-5-benzothiazol-2-ylpyridin-3-yl)phenyl]-(cis-2,6-dimethylmorpholin-4-yl)methanone]	> 20 µM	1 to 20 µM
CN(C)C(=O)CN1CCN(C(=O)c2cccc(-c3cnc(N)c(-c4nc5ccccc5s4)c3)c2)CC1 [Example 215, 2-{4-[3-(6-Amino-5-benzothiazol-2-ylpyridin-3-yl)benzoyl]piperazin-1-yl}-N,N-dimethylacetamide]	1 to 20 µM	1 to 20 µM
COCCN(CCOC)C(=O)c1cccc(-c2cnc(N)c(-c3nc4ccccc4s3)c2)c1 [Example 216, 3-(6-Amino-5-benzothiazol-2-ylpyridin-3-yl)-N,N-bis-(2-methoxyethyl)benzamide]	> 20 µM	> 20 µM
Nc1ncc(-c2cccc(C(=O)N3CCC(N4CCCC4)CC3)c2)cc1-c1nc2ccccc2s1 [Example 217, [3-(6-Amino-5-benzothiazol-2-ylpyridin-3-yl)phenyl]-(4-pyrrolidin-1-ylpiperidin-1-yl)methanone]	1 to 20 µM	0.1 to 1 µM
CN1CCC(NC(=O)c2cccc(-c3cnc(N)c(-c4nc5ccccc5s4)c3)c2)CC1 [Example 218, 3-(6-Amino-5-benzothiazol-2-ylpyridin-3-yl)-N-(1-methylpiperidin-4-yl)benzamide]	1 to 20 µM	0.1 to 1 µM
NC(=O)C1CCN(C(=O)c2cccc(-c3cnc(N)c(-c4nc5ccccc5s4)c3)c2)CC1 [Example 219, 1-[3-(6-Amino-5-benzothiazol-2-ylpyridin-3-yl)benzoyl]piperidine-4-carboxylic acid amide]	> 20 µM	0.1 to 1 µM
CN(C)CCN(C)C(=O)c1cccc(-c2cnc(N)c(-c3nc4ccccc4s3)c2)c1 [Example 220, 3-(6-Amino-5-benzothiazol-2-ylpyridin-3-yl)-N-(2-dimethylaminoethyl)-N-methylbenzamide]	1 to 20 µM	0.1 to 1 µM

Other lines, results leading:

IC50 (RON (human))	IC50 (MET (human))	Compound
1 to 20 µM	1 to 20 µM	CN(C)C(=O)c1ccc(-c2cnc(N)c(-c3nc4ccccc4s3)c2)cc1 [Example 183, 4-(6-Amino-5-benzothiazol-2-ylpyridin-3-yl)-N,N-dimethylbenzamide]
1 to 20 µM	1 to 20 µM	CN1CCN(C(=O)c2cccc(-c3cnc(N)c(-c4nc5ccccc5s4)c3)c2)CC1 [Example 184, [3-(6-Amino-5-benzothiazol-2-ylpyridin-3-yl)phenyl]-(4-methylpiperazin-1-yl)methanone]
1 to 20 µM	0.1 to 1 µM	CN(C)CCNC(=O)c1ccc(-c2cnc(N)c(-c3nc4ccccc4s3)c2)cc1 [Example 185, 4-(6-Amino-5-benzothiazol-2-ylpyridin-3-yl)-N-(2-dimethylaminoethyl)benzamide]
1 to 20 µM	1 to 20 µM	CN(C)CCNC(=O)c1cccc(-c2cnc(N)c(-c3nc4ccccc4s3)c2)c1 [Example 187, 3-(6-Amino-5-benzothiazol-2-ylpyridin-3-yl)-N-(2-dimethylaminoethyl)benzamide]
1 to 20 µM	1 to 20 µM	CN(C)CCCOc1ccc(-c2cnc(N)c(-c3nc4ccccc4s3)c2)cn1 [Example 188, 5-Benzothiazol-2-yl-6′-(3-dimethylaminopropoxy)-[3,3′]bipyridinyl-6-ylamine]
1 to 20 µM	1 to 20 µM	Nc1ncc(-c2ccc(C(=O)N3CCOCC3)cc2)cc1-c1nc2ccccc2s1 [Example 189, [4-(6-Amino-5-benzothiazol-2-ylpyridin-3-yl)phenyl]morpholin-4-ylmethanone]
1 to 20 µM	1 to 20 µM	Nc1ncc(-c2cccc(C(=O)NCc3ccco3)c2)cc1-c1nc2ccccc2s1 [Example 192, 3-(6-Amino-5-benzothiazol-2-ylpyridin-3-yl)-N-furan-2-ylmethylbenzamide]
1 to 20 µM	1 to 20 µM	Nc1ncc(-c2ccc(C(=O)NCc3ccco3)cc2)cc1-c1nc2ccccc2s1 [Example 193, 4-(6-Amino-5-benzothiazol-2-ylpyridin-3-yl)-N-furan-2-ylmethylbenzamide]
1 to 20 µM	1 to 20 µM	NC(=O)c1cccc(-c2cnc(N)c(-c3nc4ccccc4s3)c2)c1 [Example 196, 3-(6-Amino-5-benzothiazol-2-ylpyridin-3-yl)benzamide]
1 to 20 µM	1 to 20 µM	Nc1ncc(-c2cnn(CCN3CCOCC3)c2)cc1-c1nc2ccccc2s1 [Example 197, 3-Benzothiazol-2-yl-5-[1-(2-morpholin-4-ylethyl)-1H-pyrazol-4-yl]pyridin-2-ylamine]
1 to 20 µM	1 to 20 µM	CNC(=O)c1ccc(-c2cnc(N)c(-c3nc4ccccc4s3)c2)cc1 [Example 199, 4-(6-Amino-5-benzothiazol-2-ylpyridin-3-yl)-N-methylbenzamide]
1 to 20 µM	1 to 20 µM	Nc1ncc(-c2ccc(C(=O)O)cc2)cc1-c1nc2ccccc2s1 [Example 201, 4-(6-Amino-5-benzothiazol-2-ylpyridin-3-yl)-benzoic acid]
1 to 20 µM	0.1 to 1 µM	Nc1ncc(-c2ccc(C(=O)O)nc2)cc1-c1nc2ccccc2s1 [Example 202, 6′-Amino-5′-benzothiazol-2-yl-[3,3′]bipyridinyl-6-carboxylic acid]
1 to 20 µM	1 to 20 µM	CC(=O)NCCNC(=O)c1cccc(-c2cnc(N)c(-c3nc4ccccc4s3)c2)c1 [Example 205, N-(2-Acetylaminoethyl)-3-(6-amino-5-benzothiazol-2-ylpyridin-3-yl)benzamide]
1 to 20 µM	1 to 20 µM	CCN(CC)CCNC(=O)c1cccc(-c2cnc(N)c(-c3nc4ccccc4s3)c2)c1 [Example 207, 3-(6-Amino-5-benzothiazol-2-ylpyridin-3-yl)-N-(2-diethylaminoethyl)benzamide]
1 to 20 µM	0.1 to 1 µM	C[C@@H]1CN(C(=O)c2cccc(-c3cnc(N)c(-c4nc5ccccc5s4)c3)c2)C[C@H](C)N1 [Example 208, [3-(6-Amino-5-benzothiazol-2-ylpyridin-3-yl)phenyl]-(cis-3,5-dimethylpiperazin-1-yl)methanone]
1 to 20 µM	1 to 20 µM	Nc1ncc(-c2cccc(C(=O)NCCCN3CCCC3)c2)cc1-c1nc2ccccc2s1 [Example 209, 3-(6-Amino-5-benzothiazol-2-ylpyridin-3-yl)-N-(3-pyrrolidin-1-ylpropyl)benzamide]
1 to 20 µM	0.1 to 1 µM	CN1CCC(N(C)C(=O)c2cccc(-c3cnc(N)c(-c4nc5ccccc5s4)c3)c2)CC1 [Example 210, 3-(6-Amino-5-benzothiazol-2-ylpyridin-3-yl)-N-methyl-N-(1-methylpiperidin-4-yl)benzamide]
1 to 20 µM	1 to 20 µM	Nc1ncc(-c2cccc(C(=O)N3CCN(CC(=O)N4CCCC4)CC3)c2)cc1-c1nc2ccccc2s1 [Example 211, 2-{4-[3-(6-Amino-5-benzothiazol-2-ylpyridin-3-yl)benzoyl]piperazin-1-pyrrolidin-1-yl}-1-ylethanone]
